Data published in ChEMBL document CHEMBL4610129, “Discovery of Novel Selective and Orally Bioavailable Phosphodiesterase-1 Inhibitors for the Efficient Treatment of Idiopathic Pulmonary Fibrosis” (J Med Chem, 2020).
pIC50: −log10 of the molar value. Values after ≈ are worked out from the molar mass of the structure shown. Active and inactive are the calls of the source. The rule behind the calls is not given here.

Tests used:
Rattus norvegicus [1] = assay: Anti-pulmonary fibrosis activity in Sprague-Dawley rat model of BLM-induced idiopathic pulmonary fibrosis assessed as reduction in mid-expiratory flow at 10 mg/kg, po dosed daily for 28 days by mka noninvasive pulmonary monitoring system based method; type: functional, organism-based
Homo sapiens [2] = species on record: Homo sapiens; assay: Anti-pulmonary fibrosis activity in human HLF assessed as reduction in TGF-beta-induced myofibroblast differentiation by measuring reduction in alpha-SMA protein expression incubated for 48 hrs by immunofluorescence staining analysis; type: functional
[3] = Solubility in pH 7.3 solution by HPLC analysis; type: physicochemical
[4] = molecular target: cGMP-specific 3',5'-cyclic phosphodiesterase (Homo sapiens, UniProt O76074); assay: Inhibition of PDE5A1 (535 to 860 residues) (unknown origin) using [3H]-cGMP substrate incubated for 15 mins by liquid scintillation counting method relative to control
[5] = AUC (0 to t) in Sprague-Dawley rat at 2.5 mg/kg, iv; type: ADME, organism-based; settings: in vivo
Rattus norvegicus [6] = assay: Anti-pulmonary fibrosis activity in Sprague-Dawley rat model of BLM-induced idiopathic pulmonary fibrosis assessed as reduction in peak inspiratory flow at 10 mg/kg, po dosed daily for 28 days by mka noninvasive pulmonary monitoring system based method; type: functional, organism-based
Homo sapiens [7] = species on record: Homo sapiens; assay: Anti-pulmonary fibrosis activity in human HLF assessed as reduction in TGF-beta-induced myofibroblast differentiation by measuring reduction in alpha-SMA protein expression incubated for 48 hrs by Western blot analysis; type: functional
Cytochrome P450 2D6 = Cytochrome P450 2D6 (Homo sapiens, UniProt P10635); assay: Inhibition of human CYP2D6; type: ADME
Sequence of Cytochrome P450 2D6 (P10635 whole entry, the tested form may be a part): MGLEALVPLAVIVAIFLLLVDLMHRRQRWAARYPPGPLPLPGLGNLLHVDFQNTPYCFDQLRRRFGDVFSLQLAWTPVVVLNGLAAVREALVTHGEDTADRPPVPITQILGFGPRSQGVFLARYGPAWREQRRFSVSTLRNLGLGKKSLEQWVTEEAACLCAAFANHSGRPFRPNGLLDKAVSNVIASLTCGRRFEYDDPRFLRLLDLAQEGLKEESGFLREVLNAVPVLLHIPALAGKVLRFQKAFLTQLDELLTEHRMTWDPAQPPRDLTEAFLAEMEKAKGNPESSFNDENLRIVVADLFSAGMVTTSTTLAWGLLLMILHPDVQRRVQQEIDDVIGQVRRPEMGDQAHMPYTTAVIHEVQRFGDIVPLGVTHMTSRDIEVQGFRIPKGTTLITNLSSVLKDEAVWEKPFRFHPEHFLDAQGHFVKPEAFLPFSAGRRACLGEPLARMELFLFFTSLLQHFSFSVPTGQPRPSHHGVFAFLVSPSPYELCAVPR

[8] = molecular target: High affinity cGMP-specific 3',5'-cyclic phosphodiesterase 9A (Homo sapiens, UniProt O76083); assay: Inhibition of PDE9A2 (181 to 506 residues) (unknown origin) using [3H]-cGMP substrate incubated for 15 mins by liquid scintillation counting method relative to control
Sequence of High affinity cGMP-specific 3',5'-cyclic phosphodiesterase 9A (O76083 whole entry, the tested form may be a part): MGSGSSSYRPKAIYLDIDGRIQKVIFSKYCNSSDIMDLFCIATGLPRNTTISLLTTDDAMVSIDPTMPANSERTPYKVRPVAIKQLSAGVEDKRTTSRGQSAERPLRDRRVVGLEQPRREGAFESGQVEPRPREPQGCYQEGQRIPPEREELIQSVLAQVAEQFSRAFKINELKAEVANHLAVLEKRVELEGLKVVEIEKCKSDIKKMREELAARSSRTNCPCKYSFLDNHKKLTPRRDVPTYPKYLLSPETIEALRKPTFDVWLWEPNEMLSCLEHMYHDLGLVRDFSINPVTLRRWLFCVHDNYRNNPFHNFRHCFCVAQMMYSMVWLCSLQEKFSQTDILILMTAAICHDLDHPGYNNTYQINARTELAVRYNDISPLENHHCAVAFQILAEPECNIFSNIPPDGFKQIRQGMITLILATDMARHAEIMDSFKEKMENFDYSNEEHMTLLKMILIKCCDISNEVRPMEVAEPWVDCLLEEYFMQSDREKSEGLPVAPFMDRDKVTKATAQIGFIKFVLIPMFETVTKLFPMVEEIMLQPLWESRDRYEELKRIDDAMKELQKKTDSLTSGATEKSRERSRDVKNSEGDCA

Cytochrome P450 1A2 = molecular target: T1, Cytochrome P450 1A2 (Homo sapiens, UniProt P05177); assay: Inhibition of human CYP1A2; type: ADME
T1 sequence (P05177 whole entry): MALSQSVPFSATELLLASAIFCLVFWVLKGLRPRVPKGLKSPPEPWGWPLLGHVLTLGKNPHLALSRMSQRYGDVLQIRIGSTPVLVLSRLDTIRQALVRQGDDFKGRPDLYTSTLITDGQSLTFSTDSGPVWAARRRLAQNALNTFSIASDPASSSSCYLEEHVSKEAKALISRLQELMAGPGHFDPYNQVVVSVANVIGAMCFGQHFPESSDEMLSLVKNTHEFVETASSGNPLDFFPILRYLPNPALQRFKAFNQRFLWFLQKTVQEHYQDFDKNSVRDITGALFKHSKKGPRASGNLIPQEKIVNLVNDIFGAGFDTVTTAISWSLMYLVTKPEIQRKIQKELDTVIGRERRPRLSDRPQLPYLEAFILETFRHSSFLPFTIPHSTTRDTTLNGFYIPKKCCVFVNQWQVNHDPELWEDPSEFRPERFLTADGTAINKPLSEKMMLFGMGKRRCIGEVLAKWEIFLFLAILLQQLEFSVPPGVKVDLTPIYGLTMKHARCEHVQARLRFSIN

C[C@@H](Nc1nc2c(cnn2C(C)(C)C)c(=O)n1Cc1ccc(F)cc1)c1ccc(Cl)cc1
Activity (Rattus norvegicus [1]): Active | Activity (Homo sapiens [2]): Dose-dependent effect | solubility [3]: 22 µg/mL (≈ 48.5 µM) | pIC50 [4]: 6.43 | AUC(0-t) [5]: 1930 ng·h/mL | Activity (Rattus norvegicus [6]): Active | Activity (Homo sapiens [7]): Dose-dependent effect | pIC50 (Cytochrome P450 2D6): < 4.60 | pIC50 [8]: < 5.00 | pIC50 (Cytochrome P450 1A2): < 4.60
